Experiments:
[1] = system: coagulation factors; assay: In vitro prothrombin time (PT) coagulation assay; design: species or system human; settings: for PT(sec) REPLICATIONS I: replication I
Description: (§1) In vitro assays of the product of each of Examples A to C and certain of the Examples included in European Application No 81302950.1 were conducted for coagulation factors as described in "Human Blood Coagulation., Haemostasis and Thrombosis", edited by Rosemary Biggs, published by Blackwell Scientific Publications, Oxford, England (2nd Edition), pages 670-705, 1976.

[2] = system: coagulation factors; assay: In vitro partial thromboplastin time (PTT) coagulation assay; design: species or system human; settings: for PTT(sec) REPLICATIONS I: replication I
Description: as §1

[3] = Used at 0.01 Molar Concentration Based on NaHSO3
[4] = Used at 0.01 Molar Concentration Based on NaHSO3, replication II
[5] = Used at 0.01 Molar Concentration Based on NaHSO3, replication III

| SMILES | PT(sec) REPLICATIONS I [1, 3] [s] | PT(sec) REPLICATIONS II [1, 4] [s] | PT(sec) REPLICATIONS III [1, 5] [s] | PTT(sec) REPLICATIONS I [2, 3] [s] | PTT(sec) REPLICATIONS II [2, 4] [s] | PTT(sec) REPLICATIONS III [2, 5] [s] | ability to affect PT values ([1]; no conditions given) | ability to affect PTT values ([2]; no conditions given) |
| --- | --- | --- | --- | --- | --- | --- | --- | --- |
| O=S([O-])O.[Na+] [NaHSO3 in water, sodium bisulphite] | 20.2 | 20.3 | 20.0 | 64.4 | 63.2 | 63.9 |  |  |
| O=S(=O)(O)CO [Sodium formaldehyde bisulphite] | 20.5 |  |  | 63.5 |  |  |  |  |
| O=S=O [aqueous solutions of sulphur dioxide, sulphur dioxide] |  |  |  |  |  |  | display a capacity to lengthen PT and PTT values at least to the extent indicated above | display a capacity to lengthen PT and PTT values at least to the extent indicated above |

Source: patent EP0055996A1, “Antithrombotic treatment” (T AND R CHEMICALS, INC., priority 1980, dated 1982)
